The text below walks through data of PMC10732398 (PLOS Pathogens, 2023).

One test concerns ⍺4β7. Briefly: SPR binding kinetics: recombinant ⍺4β7 passed over ligand-coated surfaces (S1 Table). Particulars: SPR Biacore 3000, ligand immobilized, ⍺4β7 analyte, HBS pH 7.4, 1 mM MnCl2, 25°C. As to the method:
To measure the specific affinity of CD4–⍺4β7 interactions we developed a surface plasmon resonance (SPR) -based assay in which recombinant ⍺4β7 was passed over a surface coated with a 23 kD D1D2 protein (aa 1–183). For comparison we prepared surfaces with recombinant MAdCAM-Ig, VCAM-Ig, monomeric gp120, and a SOSIP env trimer (S1 Table). Assays were carried out in the presence of MnCl2 to present ⍺4β7 in an active conformation. […] This rate of dissociation was similar to that of both MAdCAM-Ig and VCAM-Ig with ⍺4β7 and is indicative of a relatively high-affinity interaction.
Experiments were performed using a Biacore 3000 instrument (Cytiva Life Sciences) using CM4 or CM5 sensor chips. The data were evaluated using BIAevaluation 4.1.1 software (Cytiva Life Sciences). The chip surface was activated by injecting 35 μl of a 1:1 mixture of 0.05 M N-hydroxysuccinimide and 0.2 M N-ethyl-N-(dimethylaminopropyl) carbodiimide at 5 μl/min. NeutrAvidin, HIV gp120, sCD4 (D1D2) or Hu-MAdCAM-Ig (R&D Systems) at concentrations of 5 μg/ml in 10mM NaOAc, pH 4.5, were immobilized to 250–750 resonance units (RU). After the proteins were immobilized to the desired densities, unreacted sites were blocked with 35 μl of 1 M Tris-HCl (pH 8.0). Biotinylated cyclic V2 peptides (1 μg/ml in 20 mM Tris-HCl, pH 8.0) were bound to the NeutrAvidin surfaces to densities of approximately 250–300 RU. One surface was activated and blocked without ligand as a control surface for non-specific binding. Signal from the control surface was subsequently subtracted. Running buffer was HBS (pH 7.4), 1 mM MnCl2, 0.005% Tween- 20, 0.05% soluble carboxymethyl-dextran. Binding experiments were carried out at a flow rate of 25 μl/min at 25°C. After a 2 min injection, the surface was washed for an additional 2 min in running buffer allowing dissociation of the bound ligand from the surface. The surfaces were regenerated by multiple injections of 4.5 M MgCl2 at a flow rate of 100 μl/min. Inhibition of ⍺4β7 binding by linear V2-loop and CD4 derived peptides was carried out by pre-incubating ⍺4β7 with the peptides in running buffer at the indicated concentrations for 2 hours at room temperature prior to passing them over the prepared surfaces as described above. Cross-inhibition experiments were performed by passing either buffer or the listed analytes over a surface to which sCD4 (D1D2) had been immobilized, followed by a secondary sequential injection of ⍺4β7. The ability of each analyte to inhibit either itself or ⍺4β7 was determined by comparing the binding of ⍺4β7 in the absence or presence of the listed pre-bound analytes as previously described. Illustration of the dynamic range of range of linear peptide inhibition assays is provided in S4 Fig.

Test [1] concerns ⍺4β7 transfected 293T cells. Put plainly: Flow cytometry: staining of 293T cells co-transfected with ⍺4 and β7 expression vectors. Format: binding. Particulars: PE-labelled ligand, Fig 1C. The source says: The FRET/FLIM results described above indicate a direct interaction between CD4 and ⍺4β7. […] To this end we employed a fluorescently labelled soluble dodecameric CD4 Ig fusion protein, termed D1D2-Ig⍺tp, that includes the two N-terminal Ig-like domains of CD4 (D1D2, aa 1–180), followed by IgG1 CH2 and CH3 domains, followed by the 18 aa tail-piece domain of IgA (⍺tp). In this oligomer, 12 D1D2-Igs are arranged in a disulphide linked daisy-chain (Fig 1A). Primary CD4^+ T cells, some of which express ⍺4β7, were reacted with D1D2-Ig⍺tp and analyzed by flow-cytometry. A second oligomeric Ig fusion protein, MicA-Ig⍺tp, which includes the two N-terminal domains of MicA, was employed as a specificity control. […] MAdCAM-Ig was employed as a positive control. […] We conclude that an oligomeric soluble CD4 that includes only its two N-terminal domains can bind to ⍺4β7 in a specific way.
Fig 1 Binding of soluble CD4 to ⍺4β7 on CD4^+ T cells. (A) Schematic of D1D2-Ig⍺tp. […] X-axis indicates geometric mean fluorescence intensity (gMFI). […]
Cells were stained with fluoresceine conjugated mAbs or recombinant proteins using standard procedures preceded by Fc receptor blocking with human IgG. […] Data were acquired using a FACSCanto II (BD Biosciences) and analyzed with FlowJo software (BD Biosciences). […]

Turning to “MAdCAM-Ig: recombinant MAdCAM-1 Ig fusion, R&D Systems [reference compound]”, in the test with ⍺4β7, the KA turned out to be 1.12e+08 M⁻¹, the ka was determined as 96700 M⁻¹ s⁻¹ and the kd is 0.000863 s⁻¹. Besides, the “binding to ⍺4β7 transfected versus untransfected 293T cells (in words)” value in test [1] is recorded as “bound preferentially to ⍺4β7 transfected cells”.
